Experimental data as given in ChEMBL document CHEMBL1800051 (J Med Chem, 2010).

What was measured:
[1] = Inhibition of NF-kappaB expressed in human HEK293 cells by luciferase reporter gene based luminometric analysis; format: cell-based
[2] = molecular target: NAD(P)H dehydrogenase [quinone] 1 (Mus musculus) (UniProt Q64669); conditions: Hepa-1c1c7
[3] = test system: RAW264.7; assay: Inhibition of iNOS in mouse RAW264.7 cells assessed as inhibition of LPS-induced nitrite production at 50 uM treated 30 mins before LPS challenge measured after 24 hrs by Griess method; format: functional
[4] = Cytotoxicity against mouse Hepa-1c1c7 cells at 50 uM after 48 hrs by crystal violet staining; format: cell-based; conditions: hepa-1c1c7, 48 h
[5] = test system: RAW264.7; assay: Inhibition of iNOS in mouse RAW264.7 cells assessed as inhibition of LPS-induced nitrite production treated 30 mins before LPS challenge measured after 24 hrs by Griess method; format: functional, cell-based
[6] = cells; conditions: Mus musculus, Hepa-1c1c7, 48 h
[7] = test system: RAW264.7; assay: Inhibition of iNOS in mouse RAW264.7 cells assessed as inhibition of LPS-induced nitrite production at 100 uM treated 30 mins before LPS challenge measured after 24 hrs by Griess method; format: functional
[8] = test system: HCT-116; assay: Cytotoxicity against human HCT116 cells; format: functional, cell-based
[9] = molecular target: T1, Ribosyldihydronicotinamide dehydrogenase [quinone] (Homo sapiens, UniProt P16083); assay: Inhibition of human QR2 expressed in Escherichia coli BL21 (DE3) using MTT and NMeH as substrate assessed as formazan formation
T1 sequence (P16083 whole entry): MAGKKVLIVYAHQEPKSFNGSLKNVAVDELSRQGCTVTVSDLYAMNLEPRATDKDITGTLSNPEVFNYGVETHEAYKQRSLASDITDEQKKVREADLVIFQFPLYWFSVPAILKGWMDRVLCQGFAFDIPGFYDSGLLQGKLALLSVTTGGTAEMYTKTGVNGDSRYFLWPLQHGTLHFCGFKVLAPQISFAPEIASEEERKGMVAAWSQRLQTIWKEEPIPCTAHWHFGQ

Chain of NAD(P)H dehydrogenase [quinone] 1 (Mus musculus) (Q64669 whole entry): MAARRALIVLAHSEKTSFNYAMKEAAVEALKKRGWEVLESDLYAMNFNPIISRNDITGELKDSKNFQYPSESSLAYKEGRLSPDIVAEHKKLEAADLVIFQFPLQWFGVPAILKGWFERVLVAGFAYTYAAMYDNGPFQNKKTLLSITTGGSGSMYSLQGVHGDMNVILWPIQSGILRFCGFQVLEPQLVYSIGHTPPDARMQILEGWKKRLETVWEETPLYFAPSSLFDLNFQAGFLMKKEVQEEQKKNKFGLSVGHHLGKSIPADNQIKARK

COc1cc(Br)cc2nc3cc(Cl)c(Cl)cc3nc12
IC50 [1]: 2.46 µM | CD [2]: 0.012 µM | inhibition at 50 µM [3]: 0%

Cc1nc2cccc(O)c2nc1C
Activity [4]: Toxic | inhibition at 50 µM [3]: 0%

COc1c(Br)ccc2nc3ccccc3nc12
CD [2]: 29.4 µM | inhibition at 50 µM [3]: 44.7%

O=[N+]([O-])c1cc(Br)c2nc3ccccc3nc2c1
IC50 [5]: 7.2 µM | IC50 [1]: 13.1 µM | inhibition at 50 µM [3]: 79.7%

COc1cccc2nc3cc(Cl)c(Cl)cc3nc12
IC50 [1]: 16.2 µM | CD [2]: 9.42 µM | inhibition at 50 µM [3]: 14.6%

Oc1c(Br)cc(Br)c2nc3ccccc3nc12
IC50 [5]: 4.2 µM | CD [2]: 27 µM | inhibition at 50 µM [3]: 70.9%

COc1ccc(OC)c2nc3ccccc3nc12
inhibition at 50 µM [3]: 5%

COc1cccc2nc3ccccc3nc12
inhibition at 50 µM [3]: 2.4%

Cc1cc(Br)cc2nc3ccccc3nc12
inhibition at 50 µM [3]: 5.5%

c1ccc2cc3nc4ccccc4nc3cc2c1 [BENZO[B]PHENAZINE]
IC50 [5]: 5.9 µM | Activity [4]: Toxic | IC50 [1]: 2.48 µM | CD [2]: 4.39 µM | inhibition at 50 µM [3]: 98.7%

Cc1cc2nc3ccccc3nc2cc1C
IC50 [1]: 9.15 µM | CD [2]: 23 µM | inhibition at 50 µM [3]: 49.1%

COc1cc(Br)cc2nc3cc(C)c(C)cc3nc12
IC50 [1]: 6.64 µM | inhibition at 50 µM [3]: 8.8%

COc1ccc(Br)c2nc3cc(C)c(C)cc3nc12
IC50 [5]: 48.9 µM | IC50 [1]: 17 µM | CD [2]: 1.83 µM | inhibition at 50 µM [3]: 51.9%

COc1cccc2nc3cc4ccccc4cc3nc12
IC50 [5]: 7.2 µM | IC50 [6]: 9.58 µM | IC50 [1]: 2.1 µM | CD [2]: 0.0047 µM

CS/C(S)=N/CCCC[S+](C)[O-] (centres undefined)
CD [2]: 0.26 µM

COc1cc(Br)c(Br)c2nc3cc(C)c(C)cc3nc12
IC50 [5]: 34.5 µM | IC50 [1]: 1.39 µM | inhibition at 50 µM [3]: 77.7%

COc1cc(Br)cc2nc3ccccc3nc12
IC50 [5]: 26.5 µM | inhibition at 50 µM [3]: 68.6%

Oc1c(Br)ccc2nc3ccccc3nc12
IC50 [1]: 73 µM | inhibition at 100 µM [7]: 31.5% | IC50 [8]: 0.1 µM

COc1cc2nc3ccccc3nc2cc1OC
inhibition at 50 µM [3]: 29.4%

Cc1nc2cc3ccccc3cc2nc1C
Activity [4]: Toxic | CD [2]: 16.6 µM | inhibition at 50 µM [3]: 3.4%

COc1cccc2nc(C)c(C)nc12
inhibition at 50 µM [3]: 0.8%

Oc1cc(Br)c(Br)c2nc3ccccc3nc12
IC50 [5]: 17.4 µM | IC50 [1]: 4.74 µM | inhibition at 50 µM [3]: 79.2%

Oc1ccc(Br)c2nc3ccccc3nc12
IC50 [5]: 31.5 µM | IC50 [1]: 5.19 µM | inhibition at 50 µM [3]: 84.7%

COc1c(Br)cc(Br)c2nc3ccccc3nc12
inhibition at 50 µM [3]: 24.7%

COc1cccc2nc3cc(C)c(C)cc3nc12
IC50 [5]: 47 µM | CD [2]: 11.3 µM | inhibition at 50 µM [3]: 53.8%

Cc1nc2c(Br)cc(Br)c(O)c2nc1C
IC50 [5]: 45.6 µM | IC50 [1]: 1.93 µM | IC50 [9]: 2.9 µM | inhibition at 50 µM [3]: 81.3%

C[S+]([O-])CCCCN=C=S (centres undefined)
CD [2]: 0.23 µM

Oc1cccc2nc3cc(Cl)c(Cl)cc3nc12
IC50 [5]: 47.2 µM | CD [2]: 1.85 µM | inhibition at 50 µM [3]: 51.2%

Cc1ccc2nc3ccccc3nc2c1
inhibition at 50 µM [3]: 38.7%

Brc1cc(Br)c2nc3ccccc3nc2c1
inhibition at 50 µM [3]: 16.4%

COc1cc(Br)c(Br)c2nc3ccccc3nc12
IC50 [5]: 33.7 µM | inhibition at 50 µM [3]: 70.9%

COc1ccc2nc3ccccc3nc2c1
inhibition at 50 µM [3]: 12.5%

Oc1cc(Br)cc2nc3ccccc3nc12
IC50 [5]: 28.4 µM | IC50 [1]: 5.42 µM | inhibition at 50 µM [3]: 86.5%

COc1ccc(Br)c2nc3ccccc3nc12
CD [2]: 4.3 µM | inhibition at 50 µM [3]: 47.5%
